PubChem BioAssay (NCI)
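Each compound was tested at five concentrations against cells in 96-well plates for 48 hours. GI50: concentration for 50% inhibition of growth. TGI is the concentration that stops growth completely.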

test system: HL-60(TB) leukemia; assay: NCI anticancer screen, dose series, 48 h

| Compound | TGI [µM] | GI50 [µM] |
| --- | --- | --- |
| CC(=O)CNC(=O)OC(C)(C)C | > 100 |  |
| COC(=O)CN1CCSC1=NC#N | > 100 |  |
| CCOC(=O)[C]1([Bi]([CH3])[CH3])N=NC(C(=O)OC)=C1C(=O)OC (stereo unspecified) | 52.1 | 21.2 |

test system: HOP-18 NSCLC; assay: NCI anticancer screen, dose series, 48 h

| Compound | TGI [µM] | GI50 [µM] |
| --- | --- | --- |
| O=C(O)C(CS)N=c1c2ccccc2n(O)c2ccccc12 (stereo unspecified) | > 100 |  |
| CCOC(=O)[C]1([Bi]([CH3])[CH3])N=NC(C(=O)OC)=C1C(=O)OC (stereo unspecified) | 31 | 17.3 |

test system: HOP-62 NSCLC; assay: NCI anticancer screen, dose series, 48 h

| Compound | TGI [µM] | GI50 [µM] |
| --- | --- | --- |
| CSC(C1c2ccccc2N(c2ccc(C)cc2)C2=NC(=O)N(C)C(=O)C21Cl)S(=O)(=O)c1ccc(C)cc1 (stereo unspecified) | 43.3 |  |
| O/N=C/C1c2ccccc2-c2ccccc21 | 34.2 |  |
| O=C(O)C(CS)N=c1c2ccccc2n(O)c2ccccc12 (stereo unspecified) | > 100 |  |
| CC(=O)CNC(=O)OC(C)(C)C | > 100 |  |
| COC(=O)CN1CCSC1=NC#N | > 100 |  |
| CCOC(=O)[C]1([Bi]([CH3])[CH3])N=NC(C(=O)OC)=C1C(=O)OC (stereo unspecified) | > 100 | > 100 |

test system: HOP-92 NSCLC; assay: NCI anticancer screen, dose series, 48 h

| Compound | TGI [µM] | GI50 [µM] |
| --- | --- | --- |
| CSC(C1c2ccccc2N(c2ccc(C)cc2)C2=NC(=O)N(C)C(=O)C21Cl)S(=O)(=O)c1ccc(C)cc1 (stereo unspecified) | 27.9 |  |
| O/N=C/C1c2ccccc2-c2ccccc21 | 28 |  |
| CC(=O)CNC(=O)OC(C)(C)C | > 100 |  |
| COC(=O)CN1CCSC1=NC#N | > 100 |  |
| CCOC(=O)[C]1([Bi]([CH3])[CH3])N=NC(C(=O)OC)=C1C(=O)OC (stereo unspecified) | 42.8 | 20.4 |

test system: HS 578T breast; assay: NCI anticancer screen, dose series, 48 h

| Compound | TGI [µM] |
| --- | --- |
| O/N=C/C1c2ccccc2-c2ccccc21 | 47.6 |

test system: HT29 colon; assay: NCI anticancer screen, dose series, 48 h

| Compound | TGI [µM] | GI50 [µM] |
| --- | --- | --- |
| O=C1C2c3[nH]c4ccccc4c3C3CCCCCCC3C2C(=O)N1c1ccccc1 (stereo unspecified) | > 100 |  |
| CSC(C1c2ccccc2N(c2ccc(C)cc2)C2=NC(=O)N(C)C(=O)C21Cl)S(=O)(=O)c1ccc(C)cc1 (stereo unspecified) | 57 |  |
| O/N=C/C1c2ccccc2-c2ccccc21 | 28.6 |  |
| O=C(O)C(CS)N=c1c2ccccc2n(O)c2ccccc12 (stereo unspecified) | > 100 |  |
| CC(=O)CNC(=O)OC(C)(C)C | > 100 |  |
| COC(=O)CN1CCSC1=NC#N | > 100 |  |
| CCOC(=O)[C]1([Bi]([CH3])[CH3])N=NC(C(=O)OC)=C1C(=O)OC (stereo unspecified) | 39.4 | 19.3 |

test system: IGROV1 ovarian; assay: NCI anticancer screen, dose series, 48 h

| Compound | TGI [µM] | GI50 [µM] |
| --- | --- | --- |
| CSC(C1c2ccccc2N(c2ccc(C)cc2)C2=NC(=O)N(C)C(=O)C21Cl)S(=O)(=O)c1ccc(C)cc1 (stereo unspecified) | 85.6 |  |
| O=C(O)C(CS)N=c1c2ccccc2n(O)c2ccccc12 (stereo unspecified) | > 100 |  |
| CC(=O)CNC(=O)OC(C)(C)C | > 100 |  |
| COC(=O)CN1CCSC1=NC#N | > 100 |  |
| CCOC(=O)[C]1([Bi]([CH3])[CH3])N=NC(C(=O)OC)=C1C(=O)OC (stereo unspecified) | 51.9 | 24.6 |

test system: K-562 leukemia; assay: NCI anticancer screen, dose series, 48 h

| Compound | TGI [µM] | GI50 [µM] |
| --- | --- | --- |
| O=C1C2c3[nH]c4ccccc4c3C3CCCCCCC3C2C(=O)N1c1ccccc1 (stereo unspecified) | 24.9 |  |
| CSC(C1c2ccccc2N(c2ccc(C)cc2)C2=NC(=O)N(C)C(=O)C21Cl)S(=O)(=O)c1ccc(C)cc1 (stereo unspecified) | 53.9 |  |
| O/N=C/C1c2ccccc2-c2ccccc21 | 67.3 |  |
| O=C(O)C(CS)N=c1c2ccccc2n(O)c2ccccc12 (stereo unspecified) | > 100 |  |
| CC(=O)CNC(=O)OC(C)(C)C | > 100 |  |
| COC(=O)CN1CCSC1=NC#N | > 100 |  |
| CCOC(=O)[C]1([Bi]([CH3])[CH3])N=NC(C(=O)OC)=C1C(=O)OC (stereo unspecified) | 65.7 | 16.5 |

test system: KM12 colon; assay: NCI anticancer screen, dose series, 48 h

| Compound | TGI [µM] | GI50 [µM] |
| --- | --- | --- |
| O=C1C2c3[nH]c4ccccc4c3C3CCCCCCC3C2C(=O)N1c1ccccc1 (stereo unspecified) | > 100 |  |
| O/N=C/C1c2ccccc2-c2ccccc21 | 37.4 |  |
| O=C(O)C(CS)N=c1c2ccccc2n(O)c2ccccc12 (stereo unspecified) | > 100 |  |
| CC(=O)CNC(=O)OC(C)(C)C | > 100 |  |
| COC(=O)CN1CCSC1=NC#N | > 100 |  |
| CCOC(=O)[C]1([Bi]([CH3])[CH3])N=NC(C(=O)OC)=C1C(=O)OC (stereo unspecified) | 49.2 | 21.5 |

test system: KM20L2 colon; assay: NCI anticancer screen, dose series, 48 h

| Compound | TGI [µM] |
| --- | --- |
| CSC(C1c2ccccc2N(c2ccc(C)cc2)C2=NC(=O)N(C)C(=O)C21Cl)S(=O)(=O)c1ccc(C)cc1 (stereo unspecified) | 48.4 |
| O=C(O)C(CS)N=c1c2ccccc2n(O)c2ccccc12 (stereo unspecified) | > 100 |
| CC(=O)CNC(=O)OC(C)(C)C | > 100 |

test system: LOX IMVI melanoma; assay: NCI anticancer screen, dose series, 48 h

| Compound | TGI [µM] |
| --- | --- |
| O=C1C2c3[nH]c4ccccc4c3C3CCCCCCC3C2C(=O)N1c1ccccc1 (stereo unspecified) | 17.2 |
| CSC(C1c2ccccc2N(c2ccc(C)cc2)C2=NC(=O)N(C)C(=O)C21Cl)S(=O)(=O)c1ccc(C)cc1 (stereo unspecified) | 40.3 |
| O/N=C/C1c2ccccc2-c2ccccc21 | 63.3 |
| O=C(O)C(CS)N=c1c2ccccc2n(O)c2ccccc12 (stereo unspecified) | > 100 |

test system: LXFL 529 NSCLC; assay: NCI anticancer screen, dose series, 48 h

| Compound | TGI [µM] | GI50 [µM] |
| --- | --- | --- |
| O=C1C2c3[nH]c4ccccc4c3C3CCCCCCC3C2C(=O)N1c1ccccc1 (stereo unspecified) | 33.8 |  |
| CSC(C1c2ccccc2N(c2ccc(C)cc2)C2=NC(=O)N(C)C(=O)C21Cl)S(=O)(=O)c1ccc(C)cc1 (stereo unspecified) | 42.1 |  |
| O=C(O)C(CS)N=c1c2ccccc2n(O)c2ccccc12 (stereo unspecified) | > 100 |  |
| CCOC(=O)[C]1([Bi]([CH3])[CH3])N=NC(C(=O)OC)=C1C(=O)OC (stereo unspecified) | 35.2 | 14.5 |

test system: M14 melanoma; assay: NCI anticancer screen, dose series, 48 h

| Compound | TGI [µM] | GI50 [µM] |
| --- | --- | --- |
| O=C1C2c3[nH]c4ccccc4c3C3CCCCCCC3C2C(=O)N1c1ccccc1 (stereo unspecified) | 42.5 |  |
| CSC(C1c2ccccc2N(c2ccc(C)cc2)C2=NC(=O)N(C)C(=O)C21Cl)S(=O)(=O)c1ccc(C)cc1 (stereo unspecified) | 72.3 |  |
| O/N=C/C1c2ccccc2-c2ccccc21 | 32.7 |  |
| O=C(O)C(CS)N=c1c2ccccc2n(O)c2ccccc12 (stereo unspecified) | > 100 |  |
| CC(=O)CNC(=O)OC(C)(C)C | > 100 |  |
| COC(=O)CN1CCSC1=NC#N | > 100 |  |
| CCOC(=O)[C]1([Bi]([CH3])[CH3])N=NC(C(=O)OC)=C1C(=O)OC (stereo unspecified) | > 10 | > 10 |

test system: M19-MEL melanoma; assay: NCI anticancer screen, dose series, 48 h

| Compound | TGI [µM] | GI50 [µM] |
| --- | --- | --- |
| O=C1C2c3[nH]c4ccccc4c3C3CCCCCCC3C2C(=O)N1c1ccccc1 (stereo unspecified) | 37.2 |  |
| CSC(C1c2ccccc2N(c2ccc(C)cc2)C2=NC(=O)N(C)C(=O)C21Cl)S(=O)(=O)c1ccc(C)cc1 (stereo unspecified) | 69.2 |  |
| O=C(O)C(CS)N=c1c2ccccc2n(O)c2ccccc12 (stereo unspecified) | > 100 |  |
| CC(=O)CNC(=O)OC(C)(C)C | > 100 |  |
| CCOC(=O)[C]1([Bi]([CH3])[CH3])N=NC(C(=O)OC)=C1C(=O)OC (stereo unspecified) | 32.5 | 17.6 |

test system: MALME-3M melanoma; assay: NCI anticancer screen, dose series, 48 h

| Compound | TGI [µM] | GI50 [µM] |
| --- | --- | --- |
| O=C1C2c3[nH]c4ccccc4c3C3CCCCCCC3C2C(=O)N1c1ccccc1 (stereo unspecified) | 12.7 |  |
| CSC(C1c2ccccc2N(c2ccc(C)cc2)C2=NC(=O)N(C)C(=O)C21Cl)S(=O)(=O)c1ccc(C)cc1 (stereo unspecified) | 32.6 |  |
| O/N=C/C1c2ccccc2-c2ccccc21 | 31.9 |  |
| O=C(O)C(CS)N=c1c2ccccc2n(O)c2ccccc12 (stereo unspecified) | > 100 |  |
| CC(=O)CNC(=O)OC(C)(C)C | > 100 |  |
| CCOC(=O)[C]1([Bi]([CH3])[CH3])N=NC(C(=O)OC)=C1C(=O)OC (stereo unspecified) | 31.8 | 17 |

test system: MCF7 breast; assay: NCI anticancer screen, dose series, 48 h

| Compound | TGI [µM] |
| --- | --- |
| O/N=C/C1c2ccccc2-c2ccccc21 | 33.7 |

test system: MDA-MB-231 breast; assay: NCI anticancer screen, dose series, 48 h

| Compound | TGI [µM] |
| --- | --- |
| O/N=C/C1c2ccccc2-c2ccccc21 | 29 |

test system: MDA-MB-435; assay: NCI anticancer screen, dose series, 48 h

| Compound | TGI [µM] |
| --- | --- |
| O/N=C/C1c2ccccc2-c2ccccc21 | 34.3 |

test system: MDA-N; assay: NCI anticancer screen, dose series, 48 h

| Compound | TGI [µM] |
| --- | --- |
| O/N=C/C1c2ccccc2-c2ccccc21 | 31.9 |

test system: MOLT-4 leukemia; assay: NCI anticancer screen, dose series, 48 h

| Compound | TGI [µM] | GI50 [µM] |
| --- | --- | --- |
| CSC(C1c2ccccc2N(c2ccc(C)cc2)C2=NC(=O)N(C)C(=O)C21Cl)S(=O)(=O)c1ccc(C)cc1 (stereo unspecified) | 32 |  |
| O/N=C/C1c2ccccc2-c2ccccc21 | 52.6 |  |
| O=C(O)C(CS)N=c1c2ccccc2n(O)c2ccccc12 (stereo unspecified) | > 100 |  |
| CC(=O)CNC(=O)OC(C)(C)C | > 100 |  |
| COC(=O)CN1CCSC1=NC#N | > 100 |  |
| CCOC(=O)[C]1([Bi]([CH3])[CH3])N=NC(C(=O)OC)=C1C(=O)OC (stereo unspecified) | 63.9 | 23.3 |

test system: NCI-H226 lung; assay: NCI anticancer screen, dose series, 48 h

| Compound | TGI [µM] |
| --- | --- |
| CSC(C1c2ccccc2N(c2ccc(C)cc2)C2=NC(=O)N(C)C(=O)C21Cl)S(=O)(=O)c1ccc(C)cc1 (stereo unspecified) | 48.7 |
| O/N=C/C1c2ccccc2-c2ccccc21 | 33.6 |
